Reference: ChEMBL document CHEMBL1201862, “PubChem BioAssay data set” (2004)
Counter-ions that a name gives are not always drawn.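 Five concentrations, 48 hours, 96-well plates. Abbreviation: GI50, concentration required for 50% inhibition of growth.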 Active and inactive are the calls of the source. No stated cut-off is given here; in the data, active = GI50 up to about 1.1 µM and inactive = higher.

Legend:
Experiment in all cases: inhibition of tumour cell growth, NCI panel, 48 h
[1] = test system: CCRF-CEM
[2] = test system: SNB-75
[3] = test system: K562
[4] = test system: RPMI-8226
[5] = test system: SK-MEL-2
[6] = test system: SF-268
[7] = test system: A549
[8] = test system: SF-539
[9] = test system: SK-OV-3
[10] = test system: SNB-19
[11] = test system: MDA-MB-231
[12] = test system: EKVX
[13] = test system: HCC 2998
[14] = test system: UACC-62
[15] = test system: SW-620
[16] = test system: MOLT-4
[17] = test system: CAKI-1
[18] = test system: Malme-3M
[19] = test system: BT-549
[20] = test system: SR

Measured: GI50

CCOC(=O)c1csc(NC(=O)CN2CCCCC2)n1
inactive: [1] > 100 µM | [2] > 100 µM | [3] > 100 µM | [4] > 100 µM | [5] > 100 µM | [6] > 100 µM | [7] > 100 µM | [8] > 100 µM | [9] > 100 µM | [10] > 100 µM | [11] > 100 µM | [12] > 100 µM | [13] > 100 µM | [14] > 100 µM | [15] > 100 µM | [16] > 100 µM | [17] > 100 µM

COC(=O)NN1C(=O)C(=P(c2ccccc2)(c2ccccc2)c2ccccc2)C(C(=O)OC)=C1C
inactive: [1] > 100 µM | [2] > 100 µM | [3] > 100 µM | [4] 60.5 µM | [5] > 100 µM | [6] > 100 µM | [8] > 100 µM | [18] > 100 µM | [9] > 100 µM | [10] > 100 µM | [12] > 100 µM | [14] > 100 µM | [15] > 100 µM | [16] > 100 µM | [17] > 100 µM

COc1ccc(N[C@H](C[S+]([O-])c2ccc(C)cc2)C(F)(F)C(F)(F)F)cc1 (stereo partly drawn)
inactive: [1] > 100 µM | [2] 21 µM | [3] > 100 µM | [4] > 100 µM | [6] 52.8 µM | [7] 99.5 µM | [8] 64.6 µM | [18] > 100 µM | [9] 44.1 µM | [10] 35.8 µM | [12] 65.2 µM | [13] > 100 µM | [14] 43 µM | [15] > 100 µM | [19] 85.1 µM | [16] > 100 µM | [17] > 100 µM

CCCCOc1ccc2c(c1)CC[C@@H]1[C@@H]2CC[C@]2(C)C(=O)N(CCCC)C(=O)C[C@@H]12
inactive: [1] 44.6 µM | [2] > 100 µM | [3] 6.37 µM | [4] 65.9 µM | [5] > 100 µM | [18] > 100 µM | [9] > 100 µM | [10] > 100 µM | [11] > 100 µM | [13] > 100 µM | [14] > 100 µM | [20] > 100 µM | [19] 87.9 µM | [16] 30.4 µM | [17] > 100 µM

NCCCCNOCCCN
inactive: [1] > 100 µM | [2] > 100 µM | [3] > 100 µM | [4] > 100 µM | [5] > 100 µM | [6] > 100 µM | [7] > 100 µM | [8] > 100 µM | [18] > 100 µM | [9] > 100 µM | [10] > 100 µM | [12] > 100 µM | [13] > 100 µM | [14] > 100 µM | [15] > 100 µM | [20] > 100 µM | [19] > 100 µM | [16] > 100 µM | [17] > 100 µM

NCc1ccccc1-c1c2nc(c(-c3ccccc3CN)c3ccc([nH]3)c(-c3ccccc3CN)c3nc(c(-c4ccccc4CN)c4ccc1[nH]4)C=C3)C=C2
inactive: [1] 4.17 µM | [2] 5.96 µM | [3] 14.5 µM | [4] 12.4 µM | [5] 24.7 µM | [6] 20.8 µM | [7] 22.1 µM | [10] 18.6 µM | [12] 23.8 µM | [13] 25.9 µM | [14] 24.9 µM | [15] 34.1 µM | [20] > 10 µM | [16] > 10 µM

COC(=O)C1=C(O)C(C(=O)OC)[C@@]2(O)[C@@H](C(=O)OC)[C@H](C)C[C@@H]1[C@@H]2C(=O)OC (stereo partly drawn)
inactive: [1] 28.1 µM | [2] 22.9 µM | [3] 23.2 µM | [4] 23.8 µM | [5] 21.4 µM | [8] 18.4 µM | [18] 42.9 µM | [9] 26 µM | [10] 34.2 µM | [11] 14.1 µM | [12] 22.4 µM | [13] 16.6 µM | [14] 23.7 µM | [20] 21.3 µM | [19] 32.9 µM | [16] 28.3 µM

CCCCCCCCCCCCCCCCCCN(C)CC(COP(=O)([O-])OCC[N+](C)(C)C)OC (stereo not drawn)
inactive: [1] 5.4 µM | [2] 5.93 µM | [3] 18.8 µM | [4] 6.03 µM | [5] 38.5 µM | [6] 8.17 µM | [7] 22.8 µM | [8] 16.7 µM | [18] 26.7 µM | [9] 14.1 µM | [10] 7.29 µM | [11] 57.1 µM | [12] 26.9 µM | [13] 6.75 µM | [14] 11.2 µM | [15] 17.5 µM | [20] 2.44 µM | [19] 38.5 µM | [16] 3.94 µM | [17] 5.27 µM

CC(C)(C)N(Cc1ccoc1)C(=O)/C=C\[S+]([O-])c1ccccc1 (stereo not drawn)
inactive: [1] 3.05 µM | [3] 26.6 µM | [4] 14.4 µM | [5] 20.9 µM | [6] 30.1 µM | [7] 24.3 µM | [8] 21 µM | [9] 24 µM | [10] 28.3 µM | [11] 20.2 µM | [12] 22.8 µM | [13] 18.5 µM | [14] 20 µM | [15] 10.2 µM | [20] 6.44 µM | [19] 10.7 µM | [16] 22.5 µM | [17] 14.5 µM

CSc1ccccc1P(c1ccccc1SC)c1ccccc1SC
inactive: [1] > 100 µM | [3] > 100 µM | [4] > 100 µM | [5] > 100 µM | [6] > 100 µM | [7] > 100 µM | [8] > 100 µM | [18] > 100 µM | [9] > 100 µM | [10] > 100 µM | [11] > 100 µM | [12] > 100 µM | [14] > 100 µM | [15] > 100 µM | [20] > 100 µM | [19] > 100 µM | [16] > 100 µM | [17] > 100 µM

O=C1CC2CC3OC3[C@H]3c4cc5c(cc4C(=O)N1C23)OCO5 (stereo partly drawn)
inactive: [1] > 100 µM | [3] > 100 µM | [4] > 100 µM | [5] > 100 µM | [6] > 100 µM | [7] > 100 µM | [8] > 100 µM | [18] > 100 µM | [9] > 100 µM | [10] > 100 µM | [12] > 100 µM | [13] > 100 µM | [14] > 100 µM | [15] > 100 µM | [20] > 100 µM | [16] > 100 µM | [17] > 100 µM

CCCCc1oc2ccccc2c1C(=O)c1cc(I)c(OCCN(CC)CC)c(I)c1 [AMIODARONE HYDROCHLORIDE]
inactive: [1] 4.54 µM | [2] 7.59 µM | [3] 3.88 µM | [4] 3.71 µM | [5] 4.63 µM | [6] 11 µM | [7] 8.51 µM | [8] 5.07 µM | [18] 4.89 µM | [9] 5.98 µM | [10] 6.21 µM | [12] 9.79 µM | [13] 3.85 µM | [14] 5.28 µM | [15] 4.59 µM | [16] 3.4 µM | [17] 6.14 µM
